What was measured:
VX2 tumor glycolysis = assay: Glycolytic activity (lactic acid formation) of VX2 tumor slices; format: cell-based, rabbit; conditions: for inhibition of VX2 tumor glycolysis (screen): 6 mM agent, 6 mM glucose, 37° C., 5 h
Experimental: Glycolysis was assayed by monitoring the formation of lactic acid following the addition of glucose to a medium containing VX2 tumor slices. Specifically, freshly excised tumors were washed 3 times at 4° C. in 20 ml Chance Hess Medium containing 6.2 mM KCl, 154 mM NaCl, and 11 mM NaPi, pH 7.4. Slices, 1 g each, were then prior incubated for 30 min in a Lab-Line incubator-shaker at 37° C. in 2 ml of the same medium while shaking at 50 rpm. Glucose was then added to give a final concentration of 6 mM, after which the incubation/shaking process was continued with 0.2 ml samples being removed every 30 min for up to 2 h. These samples were subjected to centrifugation at 14,000 rpm in an Eppendorf Centrifuge (Model 5415C). Then, aliquots of the supernatant, 0.01 ml, were removed from each sample, diluted with 0.03 ml of water and subjected to lactic acid determination using the kit supplied by Sigma. The latter contains, in addition to lactic dehydrogenase and NAD+, hydrazine, and glycine buffer, pH 9.2. The mixture was incubated for 30 min at 25° C. after which the absorbance due to formation of NADH was determined at 340 nm using a Gilford Model 260 spectrophotometer. To assess the elevation of the glycolytic activity of the VX2 tumor over that of liver tissue, parallel studies were always carried out in an identical manner with 1 g liver slices derived from the host liver. Finally, in those cases where agents were tested for their capacity to inhibit glycolysis, these were introduced into the system at the prior incubation step with all subsequent steps being run in parallel with those described above for the VX2 tumor or liver alone.
The screen included the following 9 compounds: 2-deoxyglucose (2DOG), 2-fluoro-2-deoxyglucose, 6-fluoro-6-deoxyglucose, 3-O-methyl glucose, 5-thio-D-glucose-6-phosphate, L-glucose, D-xylose, D-lyxose, and 3-bromopyruvic acid (3BrPA). The screen was conducted by incubating VX2 tumor slices in a medium containing 6 mM glucose with 6 mM of each of these agents at 37° C. for 5 h. The use of 6 mM glucose in the medium was used to mimic the maximal amount of glucose that might be in the blood in a real in vivo situation.
To compare the inhibitory effects of 2DOG and 3BrPA on the glycolytic capacity of the isolated liver implanted VX2 tumor, various concentrations of 2DOG and 3BrPA were prior incubated for 30 min at 37° C. with 1 g VX2 tumor slices and glycolysis was monitored.

AS-30D hepatoma cells = assay: Killing of AS-30D hepatoma cells (trypan blue); format: cell-based, rat; conditions: 20 mM, 12 h
Experimental: AS-30D hepatoma cells grown in the peritoneal cavity of Sprague Dawley female rats (see Materials) were adapted to grow in tissue culture in Dulbecco's modified Eagle's medium containing 10% fetal bovine serum. Cells were maintained at 37° C. in a humidified atmosphere containing 5% CO2, and counted in a Neubauer chamber after trypan blue dye addition (cell/dye volume=1/1) by visualization under a Nikon inverted microscope.
The studies described above using the VX2 tumor model for liver cancer predict that 2DOG and 3BrPA may have the capacity to kill hepatoma cells expressing the high glycolytic/high hexokinase phenotype. […] Cell killing was assessed in these experiments by counting those cells in which trypan blue had entered.

Q: With `O=C[C@H](O)[C@@H](O)[C@H](O)CO` [D-xylose] as the compound, how does the “inhibition of VX2 tumor glycolysis (screen)” value (“inhibition … (screen)” below) (VX2 tumor glycolysis; VX2 tumor slices) read?
A: ineffective

Q: With `O=CC[C@@H](O)[C@H](O)[C@H](O)CO` [2DOG, 2-deoxyglucose] as the compound, how does the cell killing (AS-30D hepatoma cells) read?
A: about 80%

Q: What about the “inhibition … (screen)” value (VX2 tumor glycolysis; VX2 tumor slices) of the same compound?
A: ineffective

Q: What about the IC50 (VX2 tumor glycolysis; Oryctolagus cuniculus, 0.5 h, prior incubated 30 min at 37° C. with 1 g VX2 tumor slices, read-out: half maximal inhibition of glycolysis) of the same compound?
A: ~15 mM

Q: What about the “concentration for maximal / complete inhibition of glycolysis” value (VX2 tumor glycolysis; VX2 tumor slices, 2DOG maximal (70%), 3BrPA complete) of the same compound?
A: ~50 mM

Q: What about the “maximal inhibition of glycolysis” value (VX2 tumor glycolysis; at almost 50 mM, VX2 tumor slices) of the same compound?
A: 70%

Q: How did the “inhibition … (screen)” value (VX2 tumor glycolysis; VX2 tumor slices) turn out when `O=C[C@H](O)[C@@H](O)[C@H](O)[C@H](O)CF` [6-fluoro-6-deoxyglucose] was run?
A: ineffective

Q: How did the “inhibition … (screen)” value (VX2 tumor glycolysis; VX2 tumor slices) turn out when `O=C[C@H](F)[C@@H](O)[C@H](O)[C@H](O)CO` [2-fluoro-2-deoxyglucose] was run?
A: ineffective

Q: With `O=C[C@@H](O)[C@@H](O)[C@H](O)CO` [D-lyxose] as the compound, how does the “inhibition … (screen)” value (VX2 tumor glycolysis; VX2 tumor slices) read?
A: ineffective

Q: With `O=C[C@H](O)[C@@H](O)[C@H](O)[C@H](S)COP(=O)(O)O` [5-thio-D-glucose-6-phosphate] as the compound, how does the “inhibition … (screen)” value (VX2 tumor glycolysis; VX2 tumor slices) read?
A: ineffective

Q: For `CO[C@@H]([C@H](O)[C@H](O)CO)[C@@H](O)C=O` [3-O-methyl glucose], which “inhibition … (screen)” value (VX2 tumor glycolysis; VX2 tumor slices) is on record?
A: ineffective

Q: Which “inhibition … (screen)” value (VX2 tumor glycolysis; VX2 tumor slices) does the source give for `O=C[C@@H](O)[C@H](O)[C@@H](O)[C@@H](O)CO` [L-glucose] here?
A: ineffective

Source: US20100203110A1, “Therapeutics for Cancer Using 3-Bromopyruvate and Other Selective Inhibitors of ATP Production” (The Johns Hopkins University, priority 2006, published 2010)
